The values that follow come from patent publication US11559575B2, “Multi-epitopic peptide compounds and vaccines against leishmaniasis” (INSTITUT DE RECHERCHE POUR LE DEVELOPPEMENT, priority 2018, dated 2023).

What all share (format): binding, human
Test [1] deals with HLA supertypes of class I. As to the kind of experiment: Affinity of epitopes for HLA supertypes of class I. The settings on record: for Affinity for HLA supertypes of class I: LmLRAB (IA, IB, IC) epitopes, Table 2; for Affinity for the HLA supertypes of class I: H2B-1 epitopes; for Affinity for the HLA supertypes of class I / Affinity HLA supertype allele of class I: Table 1; for Affinity HLA supertype allele of class I: H2B-II core epitopes. The text has this: HLA molecules are highly polymorphous. This is because there exist more than 2500 HLA proteins of class I (HLA-I) and more than 1000 HLA proteins of class II (HLA-II). However, some of these HLA molecules, close in sequence and in spatial conformation, may have epitopes common to the T cells. The grouping of several thousands of HLA molecules is at the present time described in a little more than 20 or so categories, referred to as “HLA supertypes” having epitopes that are very well preserved for each supertype.

The next test has as its system HLA alleles of class I. Briefly: Affinity of epitopes for HLA alleles of class I. To be noted: for Concatenation affinity for HLA allele of class I: LmLRAB (IA, IB, IC) epitopes, Table 2; for Affinity for the HLA alleles of class I: H2B-1 epitopes; for Affinity for the HLA alleles of class I / Affinity HLA alleles of class I: Table 1; for Affinity HLA alleles of class I: H2B-II core epitopes.

A further test has as its system HLA alleles of class II. As to the kind of experiment: Affinity of epitopes for HLA alleles of class II. To be noted: Table 1; for Affinity for the HLA alleles of class II: H2B-1 epitopes; for Affinity HLA alleles of class II: H2B-II core epitopes.

Entries after “also recorded” stand apart in the source; their conditions may differ.

As for “MPHVDQSSI (Leishmania major) [SEQ ID NO: 74]”, in test [1], the “Affinity for HLA supertypes of class I” value is “HLA-B*07,; also recorded: HLA-B*08”. The “Concatenation affinity for HLA allele of class I” value (“Concatenation affinity” for short) with HLA alleles of class I is listed as “HLA-B*07:02,; also recorded: HLA-B*35:01,; also recorded: HLA-B*51:01,; also recorded: HLA-B*53:01,; also recorded: HLA-B*08:01”.
Take “SMSHRTMKI (Leishmania major) [SEQ ID NO: 16]”: the “Affinity for the HLA alleles of class II” value in the test on HLA alleles of class II is on record as “DRB1*07:01,; also recorded: DRB1*13:02”. In addition, in test [1], the “Affinity for the HLA supertypes of class I” value is listed as “HLA-A*02”. In addition, the “Affinity for the HLA alleles of class I” value in the test with HLA alleles of class I is “HLA-A*02:03,; also recorded: HLA-A*32:01,; also recorded: HLA-A*02:01”.
In the case of “QMSMSHRTM (Leishmania major) [SEQ ID NO: 49]”, in the test with HLA alleles of class II, the “Affinity HLA alleles of class II” value is on record as “HLA-DRB1*01:01,; also recorded: HLA-DRB4*01:01”. Also, the “Affinity HLA supertype allele of class I” value in test [1] was “HLA-B*62”. Moreover, in the test on HLA alleles of class I, the “Affinity HLA alleles of class I” value is reported as “HLA-B*15:01”.
For the sequence “MSHRTMKIKA (Leishmania major) [SEQ ID NO: 9]”, the “Affinity for the HLA supertypes of class I” value in test [1] was “HLA-A*01/HLA-A*03”. For the same sequence, the “Affinity for the HLA alleles of class I” value in the test with HLA alleles of class I was “HLA-A*30:01”.
The matching figures for “MSMSHRTMKS (Leishmania major) [SEQ ID NO: 13]”: “HLA-A*03” and “HLA-A*03:01,; also recorded: HLA-A*11:01”.
Turning to “RFAQGEHDI (Leishmania major) [SEQ ID NO: 70]”, the “Affinity for HLA supertypes of class I” value in test [1] is “HLA-A*24”. Further, the “Concatenation affinity” value in the test with HLA alleles of class I is reported as “HLA-A*2403”.
Consider “TMKSMSHRT (Leishmania major) [SEQ ID NO: 20]”, for which, in test [1], the “Affinity for the HLA supertypes of class I” value was “HLA-A*02”. For the same sequence, the “Affinity for the HLA alleles of class I” value in the test on HLA alleles of class I is recorded as “HLA-A*02:03”.
For “KAINAQMSMM (Leishmania major) [SEQ ID NO: 4]”, in test [1], the “Affinity for the HLA supertypes of class I” value is “HLA-B*58,; also recorded: HLA-B*62”. Also, the “Affinity for the HLA alleles of class I” value in the test on HLA alleles of class I was “HLA-B*58:01,; also recorded: HLA-B*57:01,; also recorded: HLA-B*15:01”.
The matching figures for “MMERICTEA (Leishmania major) [SEQ ID NO: 5]”: “HLA-A*02” and “HLA-A*02:03,; also recorded: HLA-A*02:01”.
Regarding “TQGSSKAGF (Leishmania major) [SEQ ID NO: 72]”, the “Affinity for HLA supertypes of class I” value in test [1] is “HLA-B*27,; also recorded: HLA-B*62”. For the same sequence, the “Concatenation affinity” value in the test with HLA alleles of class I is “HLA-B*15:01,; also recorded: HLA-B*15:02”.
On to “SLKAINAQM (Leishmania major) [SEQ ID NO: 50]”, for which the “Affinity HLA alleles of class II” value in the test on HLA alleles of class II is recorded as “HLA-DRB1*04:01,; also recorded: HLA-DRB1*08:02,; also recorded: HLA-DRB1*09:01,; also recorded: HLA-DRB1*11:01,; also recorded: HLA-DRB1*13:02,; also recorded: HLA-DRB4*01:01”. The “Affinity HLA supertype allele of class I” value in test [1] is “HLA-B*62”. Moreover, the “Affinity HLA alleles of class I” value in the test with HLA alleles of class I is “HLA-B*15:01”.
With “AINAQMSMM (Leishmania major) [SEQ ID NO: 1]”, the “Affinity for the HLA supertypes of class I” value in test [1] is recorded as “HLA-B*62”. For the same sequence, the “Affinity for the HLA alleles of class I” value in the test on HLA alleles of class I was “HLA-B*15:01”.
Taken in the same sequence, the figures for “MSHRTMKSM (Leishmania major) [SEQ ID NO: 10]” were “HLA-A*01/HLA-A*03,; also recorded: HLA-B*58,; also recorded: HLA-B*62” and “HLA-B*57:01,; also recorded: HLA-A*30:01,; also recorded: HLA-B*15:01”.
As to “NENNITGGL (MENNITGGL; Leishmania major) [SEQ ID NO: 67]”, the “Affinity for HLA supertypes of class I” value in test [1] is “HLA-B*44”. Further, the “Concatenation affinity” value in the test with HLA alleles of class I is “HLA-B*40:02,; also recorded: HLA-B*44:02,; also recorded: HLA-B*44:03; also recorded: HLA-B*18:01,; also recorded: HLA-B*40:01,”.
Turning to “SMSHRTMKIK (Leishmania major) [SEQ ID NO: 17]”, the “Affinity for the HLA supertypes of class I” value in test [1] is listed as “HLA-A*01/HLA-; also recorded: A*03, HLA-A*03”. For the same sequence, the “Affinity for the HLA alleles of class I” value with HLA alleles of class I is “HLA-A*03:01,; also recorded: HLA-A*11:01,; also recorded: HLA-A*30:01”.
Take “NVYVGRSLK (Leishmania major) [SEQ ID NO: 47]”: in the test with HLA alleles of class II, the “Affinity HLA alleles of class II” value is listed as “HLA-DRB5*01:01”. Also, the “Affinity HLA supertype allele of class I” value in test [1] is on record as “HLA-A*03”. Further, the “Affinity HLA alleles of class I” value with HLA alleles of class I is reported as “HLA-A*03:01”.
As for “MSMSHRTMK (Leishmania major) [SEQ ID NO: 12]”, in the test with HLA alleles of class II, the “Affinity for the HLA alleles of class II” value is “DRB1*03:01,; also recorded: DRB1*09:01,; also recorded: DRB1*11:01”. Moreover, the “Affinity for the HLA supertypes of class I” value in test [1] is given as “HLA-A*01/HLA-; also recorded: A*03, HLA-A*03”. In addition, the “Affinity for the HLA alleles of class I” value in the test with HLA alleles of class I is on record as “HLA-A*11:01,; also recorded: HLA-A*31:01,; also recorded: HLA-A*03:01,; also recorded: HLA-A*68:01,; also recorded: HLA-A*30:01,; also recorded: HLA-A*33:01”.
In the case of “RLPENAFVI (Leishmania major) [SEQ ID NO: 71]”, the “Affinity for HLA supertypes of class I” value in test [1] is recorded as “HLA-A*01,; also recorded: HLA-A*02”. Further, the “Concatenation affinity” value in the test with HLA alleles of class I is “HLA-A*32:01,; also recorded: HLA-A*02:06,; also recorded: HLA-A*02:11,; also recorded: HLA-A*02:12,; also recorded: HLA-A*02:16,; also recorded: HLA-A*02:19”.
Taken in the same sequence, the figures for “KTKQHLREM (Leishmania major) [SEQ ID NO: 68]” were “HLA-A*01/HLA-A*03,” and “HLA-A*30:01,; also recorded: HLA-A*2602”.
